Literature values as cited in patent publication US20250325473A1, “COLLAGEN-IMPREGNATED DEVICES AND METHODS FOR TREATMENT OF CANCER” (COLLAGEN MATRIX, INC., priority 2022, published 2025).
Square brackets hold non-standard residues; d marks the D form. Ends that are not written are not given here. Hyp = O=C(O)[C@@H]1C[C@@H](O)CN1

Tests used:
Parameters in all cases: key: A plus sign (+) indicates a response similar in peptides II-22, III-23, or GPS-GFO (control); a minus sign (−) Indicates less than 20% of control; +/−: +/ − indicates 20-80% of control
DDR1-Fc or DDR1-Fc2 = conditions: binding to DDR1-Fc or DDR1-Fc2, response relative to control peptides II-22, III-23 or GPS-GFO; guest sequences flanked by (GPP)
DDR2-Fc or DDR2-Fc2 = conditions: binding to DDR2-Fc or DDR2-Fc2, response relative to control peptides II-22, III-23 or GPS-GFO; includes data from Konitsiotis et al. 2008
His-DDR2 or DS2-Fc = conditions: binding to His-DDR2 or DS2-Fc, response relative to control peptides II-22, III-23 or GPS-GFO; guest sequences flanked by (GPP)
Chain of His-DDR2 or DS2-Fc (Q16832 30-185 limits assumed): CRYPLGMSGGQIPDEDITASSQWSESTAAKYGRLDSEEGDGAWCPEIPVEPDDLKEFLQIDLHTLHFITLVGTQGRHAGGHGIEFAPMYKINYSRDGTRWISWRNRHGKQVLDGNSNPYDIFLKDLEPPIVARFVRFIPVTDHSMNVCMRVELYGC

Chain of DDR1-Fc or DDR1-Fc2 (Q08345 31-185 limits assumed): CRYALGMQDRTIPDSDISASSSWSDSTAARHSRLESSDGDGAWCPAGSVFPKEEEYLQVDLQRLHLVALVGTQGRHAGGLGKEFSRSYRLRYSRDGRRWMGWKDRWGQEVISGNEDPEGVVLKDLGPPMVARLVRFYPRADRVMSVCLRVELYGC
Chain of DDR2-Fc or DDR2-Fc2 (Q16832 30-185 limits assumed): as the sequence (Q16832 30-185 limits assumed) above

Substance	DDR2 binding (DDR2-Fc or DDR2-Fc2)	DDR2 binding (His-DDR2 or DS2-Fc)	DDR1 binding (DDR1-Fc or DDR1-Fc2)
GAKGSAGAOGIAGAOGFOGPRGPOGPQ (GAKGSAGA[Hyp]GIAGA[Hyp]GF[Hyp]GPRGP[Hyp]GPQ; not fully specified) [II- ? 3, label partly illegible]	+		− (a minus sign (−) indicates less than 10% of control)
GPSGPRGAOGVMGFO (GPSGPRGA[Hyp]GVMGF[Hyp]; not fully specified) [GPS-GFO-8A]	+	+/− (+/ − indicates 20-80% of control)	+
GARGAQGPOGATGFOGAAGRVGPOGSN (GARGAQGP[Hyp]GATGF[Hyp]GAAGRVGP[Hyp]GSN; not fully specified) [II- ? 9, label partly illegible]	+/− ((+/− indicates 30-80% of control)		+/− ((+/− indicates 30-80% of control)
GQOGVMGFO (GQ[Hyp]GVMGF[Hyp]; not fully specified) [GQO-GFO]	+/− ((+/− indicates 30-80% of control)	+	+/− ((+/− indicates 30-80% of control)
GPSGPRGQOGAMGFO (GPSGPRGQ[Hyp]GAMGF[Hyp]; not fully specified) [GPS-GFO-11A]	+	+	+
GARGEOGNIGFO (GARGE[Hyp]GNIGF[Hyp]; not fully specified) [CI-alpha2]	(+)/− ((+)/− indicates 20-30% of control)	− (a minus sign (−) Indicates less than 20% of control)	+/− ((+/− indicates 30-80% of control)
GPOGPQGVKGERGSDGGDGAAGFOGAR [III- ? 9]	+		− (a minus sign (−) indicates less than 10% of control)
GPSGPRGQOGVMGFO [GPS-GFO]	+	+	+
GASGDRGPOGPVGPOGLTGPAGEOGRE [II-46]	− (a minus sign (−) indicates less than 10% of control)		+/− ((+/− indicates 30-80% of control)
GPSGPRGQOGVMGFA (GPSGPRGQ[Hyp]GVMGFA; not fully specified) [GPS-CFO-15A]	+/− ((+/− indicates 30-80% of control)	+/− (+/ − indicates 20-80% of control)	(+)/− ((+)/− indicates 20-30% of control)
GPSGPRGQOGVMGAO (GPSGPRGQ[Hyp]GVMGA[Hyp]; not fully specified) [GPS-GFO-14A]	− (a minus sign (−) indicates less than 10% of control)	− (a minus sign (−) Indicates less than 20% of control)	− (a minus sign (−) indicates less than 10% of control)
GPSGPAGQOGVMGFO (GPSGPAGQ[Hyp]GVMGF[Hyp]; not fully specified) [GPS-GFO-6A]	+/− ((+/− indicates 30-80% of control)	+	+/− ((+/− indicates 30-80% of control)
GPSGPRGQOGVM (GPSGPRGQ[Hyp]GVM; not fully specified) [GPS-GVN]	− (a minus sign (−) indicates less than 10% of control)	− (a minus sign (−) Indicates less than 20% of control)	− (a minus sign (−) indicates less than 10% of control)
GPSGPRGQAGVMGFO (GPSGPRGQAGVMGF[Hyp]; not fully specified) [GPS-GFO-9A]	+	+	+
GPSGARGQOGVMGFO (GPSGARGQ[Hyp]GVMGF[Hyp]; not fully specified) [GPS-GFO-5A]	+	− (a minus sign (−) Indicates less than 20% of control)	+
GFOGER [GPOGER]	− (a minus sign (−) indicates less than 10% of control)	− (a minus sign (−) Indicates less than 20% of control)	− (a minus sign (−) indicates less than 10% of control)
GPSGPRGQOGVAGFO (GPSGPRGQ[Hyp]GVAGF[Hyp]; not fully specified) [GPS-GFO-12A]	(+)/− ((+)/− indicates 20-30% of control)	+	− (a minus sign (−) indicates less than 10% of control)
GPRGQOGVMGFOGPK (GPRGQ[Hyp]GVMGF[Hyp]GPK; not fully specified) [GPR-GPK]	+	− (a minus sign (−) Indicates less than 20% of control)	(+)/− ((+)/− indicates 20-30% of control)
GPSGPRGQO (GPSGPRGQ[Hyp]; not fully specified) [GPS-GQO]	− (a minus sign (−) indicates less than 10% of control)	− (a minus sign (−) Indicates less than 20% of control)	− (a minus sign (−) indicates less than 10% of control)
GARGQAGVMGFO (GARGQAGVMGF[Hyp]; not fully specified) [CI-alpha1]	+	+	+
GFOGPK (GF[Hyp]GPK; not fully specified)	− (a minus sign (−) indicates less than 10% of control)	− (a minus sign (−) Indicates less than 20% of control)	− (a minus sign (−) indicates less than 10% of control)
GPRGQOGVMGFO [GPR-GFO]	+	+	+
(GAP) -GPRGQOGVMGFO-(GAP) (GAPGAPGAPGAPGAPGPRGQ[Hyp]GVMGF[Hyp]GAPGAPGAPGAPGAP; not fully specified) [GAP-GPR-GFO, non-helical peptide flanked by (GAP) instead of (GPP)]	− (a minus sign (−) indicates less than 10% of control)	+/− (+/ − indicates 20-80% of control)	− (a minus sign (−) indicates less than 10% of control)
GVMGFO (GVMGF[Hyp]; not fully specified)	+/− ((+/− indicates 30-80% of control)	+/− (+/ − indicates 20-80% of control)	+/− ((+/− indicates 30-80% of control)
GARGQOGVMGFO (GARGQ[Hyp]GVMGF[Hyp]; not fully specified) [GAR-GFO]			+

Now from value to substance, other results behind:

DDR2 binding (DDR2-Fc or DDR2-Fc2)	DDR2 binding (His-DDR2 or DS2-Fc)	Substance	DDR1 binding (DDR1-Fc or DDR1-Fc2)
+/− ((+/− indicates 30-80% of control)		GARGFOGTOGLOGVKGRRGYOGLDGAK [II-5]	− (a minus sign (−) indicates less than 10% of control)
+	+	GQOGVMGFOGPKGANGEOGKAGEKGLO (GQ[Hyp]GVMGF[Hyp]GPKGANGE[Hyp]GKAGEKGL[Hyp]; not fully specified) [II-23]	− (a minus sign (−) indicates less than 10% of control)
+		GERGLOGPOGIKGPAGIDGFOGMKGHR [III-5]	− (a minus sign (−) indicates less than 10% of control)
+	+	GPOGPSGPRGQOGVMGFOGPKGNDGAO (GP[Hyp]GPSGPRGQ[Hyp]GVMGF[Hyp]GPKGNDGA[Hyp]; not fully specified) [III-23]	+
+	+	GAOGEDGROGPOGPQGARGQOGVMGFO (GA[Hyp]GEDGR[Hyp]GP[Hyp]GPQGARGQ[Hyp]GVMGF[Hyp]; not fully specified) [II-22]	+
+		GLAGRQGIVGLDGQRGERGFOGLOGPS [II-44]	− (a minus sign (−) indicates less than 10% of control)
+		GAOGPLGIAGITGARGLAGPOGMOGPR (GA[Hyp]GPLGIAGITGARGLAGP[Hyp]GM[Hyp]GPR; not fully specified) [III-44]	− (a minus sign (−) indicates less than 10% of control)
